Measured values published in patent US20230053307A1, “METHOD FOR PREVENTING OR TREATING SKIN DISORDERS AND CONDITIONS” (BUDDHIST TZU CHI MEDICAL FOUNDATION, priority 2021, published 2023).

Assays:
human foreskin explants = test: Human skin explant: colour, Fontana-Masson staining, Melan-A and Trp-1 IHC; type: cell-based; conditions: D4476, human skin explant
Procedure: (§1) The specimen was cultured in the 12-well plate (N=5). After 24 hours of explant culture, the specimen was treated with 0.01 mg CKI, and another treatment of 0.01 mg CKI was given two days thereafter, as shown in the timeline. On the 5th day, the specimens were exposed under 1 J/cm^2 UVB light. Samples were harvested 6 hours later. […] Moreover, frozen embedding in OCT was also made for IHC analysis for Melan-A and Trp-1 labelling.
(§2) FIGS. 6A to 6E show the UV protection effect of topical treatment of another CKI, D4476, on human skin explants. […] FIGS. 6C and 6D show the Western blotting analysis results and the quantitated amount, respectively, of the expression levels of proteins in the c-Kit pathway and melanogenesis-related protein.
For topical use on human skin explant, a CKI solution containing 1 mg in 6 μL DMSO was diluted with 594 μL phosphate buffered saline (PBS) for further use. The final working concentration is 0.01 mg/6 μL.
Human skin explant The human foreskins were used for in vitro explant culture experiments. […]
Primary antibody was applied in 4° C. overnight, and then incubated with secondary antibody at room temperature for 30 minutes. The signal was detected by AEC+Substrate-Chromogen (K346111, Dako) or Dako REAL EnVDetectSys Perox/DAB+, Rb/M (K500711, Dako), counterstained with hematoxylin and mounted with either aqueous- or organic-based medium. […]

[1] = tested on: p53 and pigmentation-related proteins; test: Western blotting of human skin explant epidermis; type: cell-based; conditions: 0.1 mg of D4476, human skin explant, vs control
Text: (§3) The numbers of Melan-A+cells and Trip-1+cells and also the relative melanin intensity in the control or CKI treatment groups are quantified in the histograms. […] The asterisks *** indicated a significant difference with P<0.001.
In addition, the epidermis and dermis were separated by thermolysin. The total proteins of epidermis were extracted by T-PER Tissue Protein Extraction Reagent (78510, Thermo Fisher) for Western blotting analysis.
(§4) Western blot For experiments involving tissues, the tissues were homogenized and lysed in 1x tissue protein extraction reagent (Thermo Fisher) containing protease inhibitor (Millipore) and kept on ice; for experiments involving cells, cell pellet was collected and lysed in 1x radioimmunoprecipitation assay (RIPA) lysis buffer containing protease inhibitor (Millipore) and kept on ice. The total protein concentration was determined using Protein Assay Dye Reagent Concentrate (Bio-Rad) following manufacturer's instruction with a microplate reader. Sample was diluted in SDS-PAGE Sample Buffer (Bio-Rad) and heated at 95° C. for 5 minutes. The protein sample was then resolved on SDS-PAGE gels (TGX FastCast acrylamide solutions, Bio-Rad) and transferred onto poly(vinylidene fluoride) (PVDF) membranes (Millipore). 5% BSA was used, and then the membranes were incubated with primary antibodies overnight at 4° C. The membranes were then washed by Tris-buffered saline with Tween 20 (TBST) and incubated with secondary antibodies for 1 hour at room temperature. The signal was detected using iBright FL1000 Imaging System from Thermo Fisher Scientific.

[2] = tested on: KitL/c-Kit pathway and melanocyte-related targets; test: Western blotting of ear skin, MC1R mutant mice; type: in vivo, mouse; conditions: topical, total 0.24 mg over 2 weeks, ear skin at 3rd week
Procedure: FIGS. 2A to 2L show the effects of CK1α ablation in keratinocytes of MC1R mutant mice and the UV protection effect of topical CKI treatment on MC1R mutant mice. […] The skin samples were treated as illustrated in the scheme and harvested after 24 hours of 750 mJ/cm^2 UVB irradiation on day 21 and stained with anti-CPD antibody for examining the DNA damage.
FIGS. 5A and 5B show the effect of D4476 and IC261 treatments on MC1R mutant mice.
as §4

CPD = test: UVB-induced CPD in human skin explants; type: cell-based; conditions: 0.08 mg of D4476; 6 hours after 1,000 mJ/cm^2 UVB
Procedure: as §1, §3, §2
In the immunohistochemical analysis shown in FIG. 3C, both Melan-A and Trp-1, the markers for melanocyte, were found increased in the staining. […] In addition, human skin explants after topical CKI treatment were exposed to 1 J/cm^2 UVB irradiation, and collected for CPD analysis 6 hours later. […]

[3] = tested on: primary human keratinocytes; test: Western blotting of CKI-treated primary human keratinocytes; type: cell-based; conditions: 72 hours
Procedure: FIGS. 4A to 4G show the effect of CKI treatment on human primary keratinocytes and melanocytes. […] In FIG. 4B, the primary human keratinocytes were treated with indicated concentrations of CKI when the cell confluence was 90%. […] Statistical results from a total of 3 independent experiments were determined with unpaired t-test analysis and shown as mean±SD. “NS” indicates no significant difference and asterisks *** indicates a significant difference with P<0.001. In FIGS. 4D and 4E, the primary melanocytes were cultured in conditional medium that have cultured keratinocytes for 3 days and treated with or without CKI.
FIGS. 7A to 7C show the effects of additional casein kinase 1 inhibitors including A51, CKI7, D4476 and IC261 on the Kit pathway and melanogenesis-related protein expression levels of human keratinocytes.
as §4
Cell culture Human keratinocyte and melanocyte were cultured from human foreskin. The keratinocyte was cultured with keratinocyte serum-free medium (SFM), or K-SFM, which is a complete serum-free medium and supplemented with human recombinant epidermal growth factor (rEGF) and bovine pituitary extract (BPE) (Gibco, 17005042) at the time of use. Melanocyte was cultured with Medium 254 containing human melanocyte growth supplement (HMGS) (Gibco, M254500). The culture was maintained at 37° C. and in 5% CO2. Keratinocyte Kit ligand secretion was detected by Human SCF ELISA Kit (Abcam, ab176109). All of the procedures followed manufacturer's instruction.
In skin, keratinocyte interacts with melanocyte through a system of paracrine growth factors and cell-cell adhesion junction for a stable skin homeostatic balance. In this embodiment, primary cultures of keratinocyte and melanocyte were prepared from human foreskin. The primary human keratinocytes were treated with indicated concentration of CKI for 3 days, and the conditional medium was collected and used to treat melanocytes for 3 days.
Additional casein kinase 1 inhibitors were used to examine their effects on KitL production with human keratinocyte cultures. […] A51 was a CKI gifted by Dr. Yinon Ben-Neriah, and […] (Sigma-Aldrich D1944) and IC261 (Sigma-Aldrich 400090) were commercially available and were dissolved in DMSO. CKI7 was another CKI commercially available (Sigma-Aldrich C0742) and was dissolved in ddH20. […] Expression of KitL was increased in CKI, CKI7, D4476 and IC261 after treatment for 72 hours, compared to DMSO or mock. Mock was a control in the experiment where the keratinocytes were neither treated with DMSO or any CKI. In FIG. 7B, it was further shown that D4476 treatment at concentrations of from 500 nM to 5,000 nM on human keratinocytes increases the expression of p53 and KitL […] in treated keratinocytes after 72 hours. […]

[4] = 500 nM to 5,000 nM, dose-independently
[5] = compared to DMSO or mock (FIG. 7A)

Compound | melanin intensity in epidermis (Fontana-Masson staining) (human foreskin explants) | KitL (Western blotting) [1] | c-Kit (Western blotting) [1] | p53 (Western blotting) [1] | tyrosinase (Western blotting) [1] | β-catenin (Western blotting) [1] | expression of Kit-L [2] | expression of c-Kit [2] | expression of tyrosinase [2] | CPD staining (CPD) | expression of KitL [3, 4] | expression of p53 [3, 4] | expression of KitL [3, 5]
NC(=O)c1ccc(-c2nc(-c3ccc4c(c3)OCCO4)c(-c3ccccn3)[nH]2)cc1 [D4476] | increased | increased | increased | stabilization | increased | stabilization | increased | increased | increased | reduced | increases | increases | increased
NCCNS(=O)(=O)c1ccc(Cl)c2ccncc12 [CKI7] |  |  |  |  |  |  |  |  |  |  |  |  | increased
COc1cc(OC)c(C=C2C(O)=Nc3ccccc32)c(OC)c1 [IC261] |  |  |  |  |  |  | increased | increased | increased |  | increases | increases | increased
